# In PMC8924334, “Synthesis of [^11C]carbonyl-labeled cyclohexyl (5-(2-acetamidobenzo[d]thiazol-6-yl)-2-methylpyridin-3-yl)carbamate ([^11C-carbonyl]PK68) as a potential PET tracer for receptor-interacting protein 1 kinase” (EJNMMI Radiopharmacy and Chemistry, 2022):
# Experiment: Ex vivo biodistribution study
# Type: in vivo, mice
# Details: mean ± SD, n = 3
# Description: Each mouse (8 weeks old, 37.9 ± 1.0 g) was injected with a bolus of [^11C]PK68 (2.7 MBq, 0.1 mL) via its tail vein. Three mice were sacrificed by cervical dislocation at each experimental time-point (1, 5, 15, 30, and 60 min) after the injection. The blood (heart contents), heart wall, lung, liver, pancreas, spleen, kidneys, adrenals, stomach (including contents), small intestine (including contents), large intestines (including contents), testes, muscles, and whole brain were removed quickly and weighed. The radioactivity in these tissues was measured with an autogamma scintillation counter (2480 Wizard^2) and expressed as %ID/g. All radioactivity measurements were corrected for decay.
smiles,measurement,setting,value
"Cc1ncc(-c2ccc3nc(N[11C](C)=O)sc3c2)cc1NC(=O)OC1CCCCC1 [[^11C]PK68, Cyclohexyl (5-(2-[^11C-carbonyl]acetamidobenzo[d]thiazol-6-yl)-2-methylpyridin-3-yl)carbamate]",radioactivity in adrenals,1 min after injection,6.2 ± 2.7 %ID/g
same,radioactivity in blood,1 min after injection,2.4 ± 0.3 %ID/g
same,radioactivity in brain,1 min after injection,0.6 ± 0.0 %ID/g
same,radioactivity in heart,1 min after injection,7.6 ± 0.3 %ID/g
same,radioactivity in large intestine (including contents),1 min after injection,0.7 ± 0.1 %ID/g
same,radioactivity in liver,1 min after injection,8.0 ± 0.8 %ID/g
same,radioactivity in lung,1 min after injection,5.2 ± 0.2 %ID/g
same,radioactivity in muscle,1 min after injection,1.9 ± 0.3 %ID/g
same,radioactivity in pancreas,1 min after injection,3.4 ± 0.2 %ID/g
same,radioactivity in small intestine (including contents),1 min after injection,1.8 ± 0.1 %ID/g
same,radioactivity in spleen,1 min after injection,1.5 ± 0.2 %ID/g
same,radioactivity in stomach (including contents),1 min after injection,1.2 ± 0.2 %ID/g
same,radioactivity in testis,1 min after injection,0.3 ± 0.1 %ID/g
same,radioactivity in adrenals,5 min after injection,4.0 ± 0.5 %ID/g
same,radioactivity in blood,5 min after injection,1.3 ± 0.2 %ID/g
same,radioactivity in brain,5 min after injection,0.4 ± 0.0 %ID/g
same,radioactivity in heart,5 min after injection,2.8 ± 0.3 %ID/g
same,radioactivity in kidney,5 min after injection,9.9 ± 0.4 %ID/g
same,radioactivity in large intestine (including contents),5 min after injection,0.9 ± 0.1 %ID/g
same,radioactivity in liver,5 min after injection,17.2 ± 0.7 %ID/g
same,radioactivity in lung,5 min after injection,2.6 ± 0.2 %ID/g
same,radioactivity in muscle,5 min after injection,1.1 ± 0.1 %ID/g
same,radioactivity in pancreas,5 min after injection,2.7 ± 0.3 %ID/g
same,radioactivity in small intestine (including contents),5 min after injection,3.3 ± 0.1 %ID/g
same,radioactivity in spleen,5 min after injection,1.6 ± 0.1 %ID/g
same,radioactivity in stomach (including contents),5 min after injection,2.0 ± 0.1 %ID/g
same,radioactivity in testis,5 min after injection,0.3 ± 0.0 %ID/g
same,radioactivity in adrenals,15 min after injection,3.3 ± 0.5 %ID/g
same,radioactivity in blood,15 min after injection,1.1 ± 0.1 %ID/g
same,radioactivity in brain,15 min after injection,0.3 ± 0.0 %ID/g
same,radioactivity in heart,15 min after injection,2.1 ± 0.3 %ID/g
same,radioactivity in kidney,15 min after injection,7.7 ± 1.0 %ID/g
same,radioactivity in large intestine (including contents),15 min after injection,1.4 ± 0.3 %ID/g
same,radioactivity in liver,15 min after injection,15.6 ± 0.8 %ID/g
same,radioactivity in lung,15 min after injection,2.1 ± 0.3 %ID/g
same,radioactivity in muscle,15 min after injection,0.8 ± 0.1 %ID/g
same,radioactivity in pancreas,15 min after injection,2.1 ± 0.3 %ID/g
same,radioactivity in small intestine (including contents),15 min after injection,9.8 ± 3.1 %ID/g
same,radioactivity in spleen,15 min after injection,1.4 ± 0.2 %ID/g
same,radioactivity in stomach (including contents),15 min after injection,4.0 ± 1.2 %ID/g
same,radioactivity in testis,15 min after injection,0.3 ± 0.0 %ID/g
same,radioactivity in adrenals,30 min after injection,2.1 ± 0.8 %ID/g
same,radioactivity in blood,30 min after injection,0.8 ± 0.1 %ID/g
same,radioactivity in brain,30 min after injection,0.2 ± 0.0 %ID/g
same,radioactivity in heart,30 min after injection,1.3 ± 0.1 %ID/g
same,radioactivity in kidney,30 min after injection,6.2 ± 0.6 %ID/g
same,radioactivity in large intestine (including contents),30 min after injection,1.7 ± 0.4 %ID/g
same,radioactivity in liver,30 min after injection,10.7 ± 0.3 %ID/g
same,radioactivity in lung,30 min after injection,1.5 ± 0.2 %ID/g
same,radioactivity in muscle,30 min after injection,0.6 ± 0.1 %ID/g
same,radioactivity in pancreas,30 min after injection,1.4 ± 0.1 %ID/g
same,radioactivity in small intestine (including contents),30 min after injection,16.7 ± 1.4 %ID/g
same,radioactivity in spleen,30 min after injection,0.9 ± 0.0 %ID/g
same,radioactivity in stomach (including contents),30 min after injection,4.7 ± 1.0 %ID/g
same,radioactivity in testis,30 min after injection,0.3 ± 0.0 %ID/g
same,radioactivity in adrenals,60 min after injection,1.2 ± 0.1 %ID/g
same,radioactivity in blood,60 min after injection,0.5 ± 0.1 %ID/g
same,radioactivity in brain,60 min after injection,0.1 ± 0.0 %ID/g
same,radioactivity in heart,60 min after injection,0.7 ± 0.1 %ID/g
same,radioactivity in kidney,60 min after injection,3.2 ± 0.1 %ID/g
same,radioactivity in large intestine (including contents),60 min after injection,2.6 ± 0.6 %ID/g
same,radioactivity in liver,60 min after injection,6.0 ± 0.2 %ID/g
same,radioactivity in lung,60 min after injection,0.8 ± 0.1 %ID/g
same,radioactivity in muscle,60 min after injection,0.3 ± 0.0 %ID/g
same,radioactivity in pancreas,60 min after injection,0.8 ± 0.1 %ID/g
same,radioactivity in small intestine (including contents),60 min after injection,27.7 ± 3.0 %ID/g
same,radioactivity in spleen,60 min after injection,0.5 ± 0.1 %ID/g
same,radioactivity in stomach (including contents),60 min after injection,7.2 ± 2.4 %ID/g
same,radioactivity in testis,60 min after injection,0.2 ± 0.0 %ID/g
